The term pIC50 denotes the negative decadic logarithm of the IC50, by convention in mol/L.

SMILES strings stand for the structures. pIC50: −log10 of the molar value.

The assay has as its target T1, Dual specificity protein phosphatase 1 (Homo sapiens, UniProt P28562).
T1 sequence (P28562 whole entry): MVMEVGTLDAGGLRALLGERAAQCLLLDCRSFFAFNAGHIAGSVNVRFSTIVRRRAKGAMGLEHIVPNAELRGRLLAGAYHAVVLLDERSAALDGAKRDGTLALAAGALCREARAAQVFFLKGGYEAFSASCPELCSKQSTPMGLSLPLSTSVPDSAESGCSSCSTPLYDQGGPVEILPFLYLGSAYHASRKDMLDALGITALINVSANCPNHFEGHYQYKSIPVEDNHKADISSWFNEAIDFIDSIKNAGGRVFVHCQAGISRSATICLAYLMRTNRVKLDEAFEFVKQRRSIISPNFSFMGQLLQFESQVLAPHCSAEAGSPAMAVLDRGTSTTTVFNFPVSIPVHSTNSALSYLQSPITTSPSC
The assay is described as follows: MKP-1 phosphatase inhibitors, SAR follow-up, biochemical, in vitro (AID 579). The settings on record: pH 7; 23 °C.
On to `Nc1cc(=O)[nH]c(=O)n1CC1CC1`, for which the negative logarithm of the IC50 (pIC50) was < 4.30. Turning to `NC(=O)NCC1CC1` [1-(cyclopropylmethyl)urea], the pIC50 is < 4.30. For `Oc1cc(C(F)(F)F)nc2c(C(F)(F)F)cccc12` [2,8-bis(trifluoromethyl)-1H-quinolin-4-one], the pIC50 is < 4.30. For `Cn1c(N)c(C(=O)COC(=O)c2cc(C(F)(F)F)nc3c(C(F)(F)F)cccc23)c(=O)n(C)c1=O` [2,8-bis(trifluoromethyl)-4-quinolinecarboxylic acid [2-(4-amino-1,3-dimethyl-2,6-dioxo-5-pyrimidinyl)-2-oxoethyl] ester], the pIC50 was < 4.30. `Cn1c(=O)c(C(=O)COC(=O)c2cc(C(F)(F)F)nc3c(C(F)(F)F)cccc23)c(N)n(Cc2ccccc2)c1=O` [2,8-bis(trifluoromethyl)-4-quinolinecarboxylic acid [2-[4-amino-1-methyl-2,6-dioxo-3-(phenylmethyl)-5-pyrimidinyl]-2-oxoethyl] ester]: the negative logarithm of the IC50 (pIC50) is < 4.30. On to `CC(C)Cn1c(N)c(C(=O)COC(=O)c2cc(C(F)(F)F)nc3c(C(F)(F)F)cccc23)c(=O)n(C)c1=O` [2,8-bis(trifluoromethyl)-4-quinolinecarboxylic acid [2-[4-amino-1-methyl-3-(2-methylpropyl)-2,6-dioxo-5-pyrimidinyl]-2-oxoethyl] ester], for which the pIC50 was < 4.30. Regarding `Cn1c(=O)c(C(=O)COC(=O)c2cc(C(F)(F)F)nc3c(C(F)(F)F)cccc23)c(N)n(CC2CC2)c1=O` [2,8-bis(trifluoromethyl)-4-quinolinecarboxylic acid [2-[6-amino-1-(cyclopropylmethyl)-3-methyl-2,4-dioxo-5-pyrimidinyl]-2-oxoethyl] ester], the pIC50 is < 4.30. Consider `Cn1c(N)c(C(=O)COC(=O)c2cc(C(F)(F)F)nc3c(C(F)(F)F)cccc23)c(=O)n(Cc2ccccc2)c1=O` [2,8-bis(trifluoromethyl)-4-quinolinecarboxylic acid [2-[6-amino-1-methyl-2,4-dioxo-3-(phenylmethyl)-5-pyrimidinyl]-2-oxoethyl] ester], for which the pIC50 is < 4.30.

As for `O=C(O)c1cc(C(F)(F)F)nc2c(C(F)(F)F)cccc12` [2,8-bis(trifluoromethyl)-4-quinolinecarboxylic acid], the pIC50 is < 4.30.

With `Cn1c(N)c(C(=O)COC(=O)c2cc(-c3ccco3)nc3ccccc23)c(=O)n(C)c1=O` [2-(2-furanyl)-4-quinolinecarboxylic acid [2-(4-amino-1,3-dimethyl-2,6-dioxo-5-pyrimidinyl)-2-oxoethyl] ester], the pIC50 was 4.69. `CC(C)Cn1c(N)c(C(=O)COC(=O)c2cc(-c3ccco3)nc3ccccc23)c(=O)n(C)c1=O` [2-(2-furanyl)-4-quinolinecarboxylic acid [2-[4-amino-1-methyl-3-(2-methylpropyl)-2,6-dioxo-5-pyrimidinyl]-2-oxoethyl] ester] showed a pIC50 of 4.30. This pIC50 is 0.39 log units lower than that of the compound before. On to `Cn1c(=O)c(C(=O)COC(=O)c2cc(-c3ccco3)nc3ccccc23)c(N)n(CC2CC2)c1=O` [2-(2-furanyl)-4-quinolinecarboxylic acid [2-[6-amino-1-(cyclopropylmethyl)-3-methyl-2,4-dioxo-5-pyrimidinyl]-2-oxoethyl] ester], for which the pIC50 was 4.61. With `Cn1c(N)c(C(=O)COC(=O)c2cc(-c3ccco3)nc3ccccc23)c(=O)n(Cc2ccccc2)c1=O` [2-(2-furanyl)-4-quinolinecarboxylic acid [2-[6-amino-1-methyl-2,4-dioxo-3-(phenylmethyl)-5-pyrimidinyl]-2-oxoethyl] ester], the negative-log IC50 (pIC50) was 4.77. `O=C(O)c1cc(-c2ccco2)nc2ccccc12` [2-(2-furanyl)-4-quinolinecarboxylic acid]: the pIC50 was < 4.30. As to `Cn1c(N)c(C(=O)COC(=O)c2cc(C(F)(F)F)nc3ccccc23)c(=O)n(C)c1=O` [2-(trifluoromethyl)-4-quinolinecarboxylic acid [2-(4-amino-1,3-dimethyl-2,6-dioxo-5-pyrimidinyl)-2-oxoethyl] ester], the negative-log IC50 (pIC50) was < 4.30.

As to `Cn1c(=O)c(C(=O)COC(=O)c2cc(C(F)(F)F)nc3ccccc23)c(N)n(Cc2ccccc2)c1=O` [2-(trifluoromethyl)-4-quinolinecarboxylic acid [2-[4-amino-1-methyl-2,6-dioxo-3-(phenylmethyl)-5-pyrimidinyl]-2-oxoethyl] ester], the pIC50 was < 4.30. For `CC(C)Cn1c(N)c(C(=O)COC(=O)c2cc(C(F)(F)F)nc3ccccc23)c(=O)n(C)c1=O` [2-(trifluoromethyl)-4-quinolinecarboxylic acid [2-[4-amino-1-methyl-3-(2-methylpropyl)-2,6-dioxo-5-pyrimidinyl]-2-oxoethyl] ester], the pIC50 was < 4.30. With `Cn1c(N)c(C(=O)COC(=O)c2cc(C(F)(F)F)nc3ccccc23)c(=O)n(Cc2ccccc2)c1=O` [2-(trifluoromethyl)-4-quinolinecarboxylic acid [2-[6-amino-1-methyl-2,4-dioxo-3-(phenylmethyl)-5-pyrimidinyl]-2-oxoethyl] ester], the pIC50 was < 4.30. As to `O=C(O)c1cc(C(F)(F)F)nc2ccccc12` [2-(trifluoromethyl)-4-quinolinecarboxylic acid], the pIC50 is < 4.30. Turning to `N#CCC(=O)NC(=O)NCC1CC1` [2-cyano-N-(cyclopropylmethylcarbamoyl)acetamide], the pIC50 is < 4.30. With `Cn1c(N)c(C(=O)COC(=O)c2cc(C3CC3)nc3ccccc23)c(=O)n(C)c1=O` [2-cyclopropyl-4-quinolinecarboxylic acid [2-(4-amino-1,3-dimethyl-2,6-dioxo-5-pyrimidinyl)-2-oxoethyl] ester], the pIC50 is < 4.30. `Cn1c(=O)c(C(=O)COC(=O)c2cc(C3CC3)nc3ccccc23)c(N)n(Cc2ccccc2)c1=O` [2-cyclopropyl-4-quinolinecarboxylic acid [2-[4-amino-1-methyl-2,6-dioxo-3-(phenylmethyl)-5-pyrimidinyl]-2-oxoethyl] ester]: the pIC50 was < 4.30. Take `CC(C)Cn1c(N)c(C(=O)COC(=O)c2cc(C3CC3)nc3ccccc23)c(=O)n(C)c1=O` [2-cyclopropyl-4-quinolinecarboxylic acid [2-[4-amino-1-methyl-3-(2-methylpropyl)-2,6-dioxo-5-pyrimidinyl]-2-oxoethyl] ester]: the negative-log IC50 (pIC50) was < 4.30.

On to `Cn1c(N)c(C(=O)COC(=O)c2cc(C3CC3)nc3ccccc23)c(=O)n(Cc2ccccc2)c1=O` [2-cyclopropyl-4-quinolinecarboxylic acid [2-[6-amino-1-methyl-2,4-dioxo-3-(phenylmethyl)-5-pyrimidinyl]-2-oxoethyl] ester], for which the pIC50 was 4.54. In the case of `O=C(O)c1cc(C2CC2)nc2ccccc12` [2-cyclopropyl-4-quinolinecarboxylic acid], the pIC50 is < 4.30. Turning to `Cn1c(N)c(C(=O)COC(=O)c2cc(-c3ccccc3)nc3ccccc23)c(=O)n(C)c1=O` [2-phenyl-4-quinolinecarboxylic acid [2-(4-amino-1,3-dimethyl-2,6-dioxo-5-pyrimidinyl)-2-oxoethyl] ester], the pIC50 was < 4.30. The compound `Cn1c(=O)c(C(=O)COC(=O)c2cc(-c3ccccc3)nc3ccccc23)c(N)n(Cc2ccccc2)c1=O` [2-phenyl-4-quinolinecarboxylic acid [2-[4-amino-1-methyl-2,6-dioxo-3-(phenylmethyl)-5-pyrimidinyl]-2-oxoethyl] ester] showed a pIC50 of 4.30.

As to `CC(C)Cn1c(N)c(C(=O)COC(=O)c2cc(-c3ccccc3)nc3ccccc23)c(=O)n(C)c1=O` [2-phenyl-4-quinolinecarboxylic acid [2-[4-amino-1-methyl-3-(2-methylpropyl)-2,6-dioxo-5-pyrimidinyl]-2-oxoethyl] ester], the pIC50 is < 4.30.

In the case of `Cn1c(N)c(C(=O)COC(=O)c2cc(-c3ccccc3)nc3ccccc23)c(=O)n(Cc2ccccc2)c1=O` [2-phenyl-4-quinolinecarboxylic acid [2-[6-amino-1-methyl-2,4-dioxo-3-(phenylmethyl)-5-pyrimidinyl]-2-oxoethyl] ester], the pIC50 is < 4.30. In the case of `FC(F)(F)c1cc(Br)c2cccc(C(F)(F)F)c2n1` [4-bromanyl-2,8-bis(trifluoromethyl)quinoline] it was < 4.30; in that of `Cn1c(N)c(C(=O)COC(=O)c2ccnc3ccccc23)c(=O)n(C)c1=O` [4-quinolinecarboxylic acid [2-(4-amino-1,3-dimethyl-2,6-dioxo-5-pyrimidinyl)-2-oxoethyl] ester], < 4.30; in that of `Cn1c(=O)cc(N)n(Cc2ccccc2)c1=O` [6-amino-1-benzyl-3-methyl-pyrimidine-2,4-quinone], < 4.30. For `Cn1c(=O)c(C(=O)CCl)c(N)n(Cc2ccccc2)c1=O` [6-amino-1-benzyl-5-(2-chloroacetyl)-3-methyl-pyrimidine-2,4-quinone] the value was < 4.30; for `Nc1cc(=O)[nH]c(=O)n1Cc1ccccc1` [6-amino-1-benzylpyrimidine-2,4-dione], < 4.30; for `Cn1c(N)cc(=O)n(Cc2ccccc2)c1=O` [6-amino-1-methyl-3-(phenylmethyl)pyrimidine-2,4-dione], < 4.30. In the case of `Cn1c(N)c(C(=O)CCl)c(=O)n(Cc2ccccc2)c1=O` [6-amino-3-benzyl-5-(2-chloroacetyl)-1-methyl-pyrimidine-2,4-quinone] it was < 4.30. As to `Cn1c(N)c(C(=O)CCl)c(=O)n(C)c1=O` [6-amino-5-(2-chloro-1-oxoethyl)-1,3-dimethylpyrimidine-2,4-dione], the pIC50 is < 4.30. On to `Cn1c(=O)c(C(=O)CCl)c(N)n(CC2CC2)c1=O` [6-amino-5-(2-chloro-1-oxoethyl)-1-(cyclopropylmethyl)-3-methylpyrimidine-2,4-dione], for which the negative logarithm of the IC50 (pIC50) is < 4.30.

Source of the values: BindingDB's records for doi:10.7270/Q29G5K5D (Cc_Pmlsc, 2007).
